What was measured:
CRAC channels = CRAC channels (Homo sapiens (Human), UniProt Q96D31); experiment: In-vitro CRAC channel inhibition assay in Jurkat cells (thapsigargin-induced calcium influx); type: cell-based
In short: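 Jurkat cells given test compounds in Ca2+/Mg2+-free Hanks buffer for 15 min, then thapsigargin (1 μM final) for 15 min to deplete ER stores. IC50 from percent inhibition of thapsigargin-induced Ca2+ influx.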

Female Balb/C mice = experiment: Concanavalin (Con) A induced Hepatitis in Female Balb/C mice; type: in vivo; details: 10 mg/kg b.wt, oral, 1 hour prior to Con A; blood after 24 hours
Protocol: i. Concanavalin (Con) A induced Hepatitis in Female Balb/C mice: Con A is often used to prepare experimental animals with high levels of cytotoxic T-lymphocytes, because these cells are involved in the development of viral infections in humans. In this model, animals were administered test compounds orally 1 hour prior to intravenous administration of Con A. Blood samples were collected after 24 hours for determination of Serum glutamic oxaloacetic transaminase (SGOT) and Serum glutamic pyruvic transaminase (SGPT) in serum. Results indicated >85% reduction in serum SGOT & SGPT upon administration of the test compound (example 69) at 10 mg/kg b.wt.

Guinea Pigs = experiment: OVA-Induced Asthma in Guinea Pigs; type: in vivo; details: 10 mg/kg b.wt, oral, 1 h before OVA challenge
Protocol: iv. OVA-Induced Asthma in Guinea Pigs: Pulmonary eosinophilia and airway remodelling in conjunction with altered neural control of airway tone and airway epithelial desquamation contributes to Airway Hyper-responsiveness (AHR) in asthma. For determination of eosinophil reduction, animals were sensitized with OVA on d0, d7, and d14 followed by another round (0.1% w/v) through inhalation on d19 & d20. Compounds were administered orally 1 h before OVA challenge (0.3%). BAL fluid was collected on d22 for differential count and cytokine estimation. For determination of change in respiratory parameters, animals were subjected to whole body plethysmography immediately after ova challenge.

male DBA/1 Ola HSD mice = experiment: Collagen-induced arthritis in male DBA/1 Ola HSD mice; type: in vivo; details: 10 mg/kg b.wt, daily po, qd
Protocol: v. Collagen-induced arthritis in male DBA/1 Ola HSD mice: Collagen induced arthritis in rodent models have been widely used to illustrate and understand the development of the disease besides serving as a surrogate for validation of therapeutic targets for human rheumatoid arthritis. Mice were anesthetized with Isoflurane and given 150 μl of Bovine Type II collagen in Freund's complete adjuvant injections (day 0 and day 21). Treatment was initiated on study day 0 and continued once daily, every day (po, qd). Starting on day 18, clinical scores were given daily for each of the paws (right front, left front, right rear, left rear) and continued till the day of sacrifice (day 34). Daily administration of the test compound (Example 69) at 10 mg/kg b.wt alleviated arthritic symptoms, disease progression, and incidence by 30% compared to the control animals.

IL-2 [1] = experiment: Inhibition of IL-2 in Jurkat cells; type: cell-based; details: Homo sapiens, Con A + PMA, 20 h, ELISA, read-out: IC 50 Jurkat IL-2
Protocol: (§1) 2. In Vitro Inhibition of Cytokine Release in Jurkat Cells, Human Whole Blood and Peripheral Blood Mononuclear Cells (PBMC).
(§2) Inhibition of cytokine IL-2, IL-4, IL-5 and TNF α was determined as described below. • a. Inhibition of IL-2 in Jurkat cells: Cells were incubated with desired concentrations of the inhibitor for 15 min. Cytokine release was induced by the addition of Concanavalin A (25 μg/ml)+Phorbol Myristate Acetate (50 ng/ml) for IL-2 & TNFα or with Phytohemagglutinin ([…]) for IL-4 & IL-5 and incubated at 37° C. in an atmosphere containing […]. Supernatant was collected after 20 h (IL-2 & TNFα) or 48 h (IL-4 & IL-5) for estimation of cytokines by ELISA. Data were analysed using GraphPad Prism. IC50 values for each compound were determined based on the percent inhibition due to the test compound compared to the control. • b. Inhibition of cytokine release in Human Whole Blood (HWB): Freshly collected HWB was diluted with RPMI medium (1:4.5) and added to a 96-well plate. Wells were incubated with desired concentrations of the inhibitor for 15 min. Cytokine release was induced by the addition of Concanavalin A (25 μg/ml)+Phorbol Myristate Acetate (50 ng/ml) for IL-2 & TNFα or with Phytohemagglutinin (5 μg/ml) for IL-4 & IL-5 and incubated at 37° C. in an atmosphere containing […]. Supernatant was collected after 20 h (IL-2 & TNFα) or 48 h (IL-4 & IL-5) for estimation of cytokines by ELISA. Data were analysed using GraphPad Prism. IC50 values for each compound were determined based on the percent inhibition due to the test compound compared to the control. • c. Inhibition of cytokine release in PBMC: PBMC from freshly collected HWB were isolated by density gradient using Histopaque and seeded in a 96-well plate. Cells were incubated with desired concentrations of the inhibitor for 15 min. Cytokine release was induced by the addition of Concanavalin A (25 μg/ml)+Phorbol Myristate Acetate (50 ng/ml) for IL-2 & TNFα or with Phytohemagglutinin (5 μg/ml) for IL-4 & IL-5 and incubated at 37° C. in an atmosphere containing […]. Supernatant was collected after 20 h (IL-2 & TNFα) or 48 h (IL-4 & IL-5) for estimation of cytokines by ELISA. Data were analysed using GraphPad Prism. IC50 values for each compound were determined based on the percent inhibition due to the test compound compared to the control.

IL-2 [2] = experiment: Inhibition of cytokine release in Human Whole Blood: IL-2; type: cell-based; details: Con A + PMA, 20 h, ELISA, read-out: IC 50 Human Whole Blood IL-2
Protocol: as §1, §2

TNFα [3] = experiment: Inhibition of cytokine release in Human Whole Blood: TNFα; type: cell-based; details: Con A + PMA, 20 h, ELISA, read-out: IC 50 Human Whole Blood TNFα
Protocol: as §1, §2

IL-5 [4] = experiment: Inhibition of cytokine release in Human Whole Blood: IL-5; type: cell-based; details: Phytohemagglutinin, 48 h, ELISA, read-out: IC 50 Human Whole Blood IL-5
Protocol: as §1, §2

IL-4 [5] = experiment: Inhibition of cytokine release in Human Whole Blood: IL-4; type: cell-based; details: Phytohemagglutinin, 48 h, ELISA, read-out: IC 50 Human Whole Blood IL-4
Protocol: as §1, §2

IL-2 [6] = experiment: Inhibition of cytokine release in PBMC: IL-2; type: cell-based; details: Homo sapiens, Con A + PMA, 20 h, ELISA, read-out: IC 50 PBMC IL-2
Protocol: as §1, §2

TNFα [7] = experiment: Inhibition of cytokine release in PBMC: TNFα; type: cell-based; details: Homo sapiens, Con A + PMA, 20 h, ELISA, read-out: IC 50 PBMC TNFα
Protocol: as §1, §2

IL-5 [8] = experiment: Inhibition of cytokine release in PBMC: IL-5; type: cell-based; details: Homo sapiens, Phytohemagglutinin, 48 h, ELISA, read-out: IC 50 PBMC IL-5
Protocol: as §1, §2

IL-4 [9] = experiment: Inhibition of cytokine release in PBMC: IL-4; type: cell-based; details: Homo sapiens, Phytohemagglutinin, 48 h, ELISA, read-out: IC 50 PBMC IL-4
Protocol: as §1, §2

[10] = system: CRAC channels over the voltage operated channels (VOC); details: Yasurio Yonetoky et al.; cited from earlier work

Sequence of CRAC channels (Q96D31 whole entry): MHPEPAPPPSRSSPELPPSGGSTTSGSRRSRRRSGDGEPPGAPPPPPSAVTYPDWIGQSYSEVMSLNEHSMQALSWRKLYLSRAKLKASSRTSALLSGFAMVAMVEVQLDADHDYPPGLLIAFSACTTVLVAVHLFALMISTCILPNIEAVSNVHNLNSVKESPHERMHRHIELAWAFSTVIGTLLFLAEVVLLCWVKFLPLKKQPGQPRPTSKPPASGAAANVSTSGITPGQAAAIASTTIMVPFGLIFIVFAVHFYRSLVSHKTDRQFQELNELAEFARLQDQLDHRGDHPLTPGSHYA

Row | inhibition at 1 µM (CRAC channels) [%] | IC50 (IL-2 [1]) [nM] | IC50 (IL-2 [2]) [nM] | IC50 (TNFα [3]) [nM] | IC50 (IL-5 [4]) [nM] | IC50 (IL-4 [5]) [nM] | IC50 (IL-2 [6]) [nM] | IC50 (TNFα [7]) [nM] | IC50 (IL-5 [8]) [nM] | IC50 (IL-4 [9]) [nM] | Compound | reduction in serum SGOT (Female Balb/C mice) [%] | reduction in serum SGPT (Female Balb/C mice) [%] | change in respiratory parameters (whole body plethysmography) (Guinea Pigs) | alleviation of arthritic symptoms, disease progression, and incidence compared to the control animals (male DBA/1 Ola HSD mice) [%] | selective index CRAC channels over VOC [10]
1 | 74.6 |  |  |  |  |  |  |  |  |  | Cc1ncc(C(=O)Nc2ccc(-n3nc(C(F)(F)F)cc3C3CC3)cc2)c(C)n1 [Example 69, N-{4-[5-cyclopropyl-3-(trifluoromethyl)-1H-pyrazol-1-yl]phenyl}-2,4-dimethylpyrimidine-5-carboxamide] | > 85 | > 85 | improvement in respiration | 30 | 
2 | 90 | 140 | 65.1 | 148 | 173 | 142 | 52.9 | 66.8 | 140 | 264 | Cc1ncncc1C(=O)Nc1ccc(-n2nc(C(F)(F)F)cc2C2CC2)c(F)c1 [Example 93, N-{4-[5-cyclopropyl-3-(trifluoromethyl)-1H-pyrazol-1-yl]-3-fluorophenyl}-4-methylpyrimidine-5-carboxamide] |  |  |  |  | 
3 | 96.2 |  | 138 | 38.4 | 19.8 | 143 | 17.5 | 16.5 | 20.6 | 55.8 | O=C(Nc1ccc(-n2nc(C(F)(F)F)cc2C2CC2)nc1)c1c(F)cccc1F [Example 108, N-{6-[5-cyclopropyl-3-(trifluoromethyl)-1H-pyrazol-1-yl]pyridin-3-yl}-2,6-difluorobenzamide] |  |  |  |  | 
4 |  |  |  |  |  |  |  |  |  |  | Cc1nnsc1C(=O)Nc1ccc(-n2nc(C(F)(F)F)cc2C(F)(F)F)cc1 [YM-58483] |  |  |  |  | 31

From patent US10668051B2, “Modulators of calcium release-activated calcium channel” (Rhizen Pharmaceuticals SA, priority 2009, dated 2020)
